Species: Rattus norvegicus
Experiment: DrugMatrix - Regimen: Daily Repeat
Assay type: toxicity, organism-based, Sprague-Dawley
Parameters: regimen Daily Repeat, gender Male, age 6-8 weeks
Conditions: in vivo, po, 50 mg/kg, route oral GAVAGE, dose level Low, […]; for ABSOLUTE BASOPHIL / ABSOLUTE EOSINOPHIL / ABSOLUTE LYMPHOCYTE / ABSOLUTE MONOCYTE / ABSOLUTE SEGMENTED NEUTROPHIL / BASOPHIL / EOSINOPHIL / ERYTHROCYTE COUNT / HEMATOCRIT / HEMOGLOBIN / LEUKOCYTE COUNT / LYMPHOCYTE / MEAN CORPUSCULAR HEMOGLOBIN / MEAN CORPUSCULAR HEMOGLOBIN CONCENTRATION / MEAN CORPUSCULAR VOLUME / MONOCYTE / NEUTROPHIL / NUCLEATED RED BLOOD CELLS / PLATELET COUNT: tissue Blood; for ALANINE AMINOTRANSFERASE / ALBUMIN / ALKALINE PHOSPHATASE / ASPARTATE AMINOTRANSFERASE / BLOOD UREA NITROGEN / CARBON DIOXIDE / CHLORIDE / CHOLESTEROL / CREATINE PHOSPHOKINASE / CREATININE / GLUCOSE / LACTATE DEHYDROGENASE / LIPASE / PHOSPHORUS / POTASSIUM / SODIUM / TOTAL BILIRUBIN / TOTAL PROTEIN / URIC ACID: tissue Plasma

Compound: COC(=O)Nc1nc2ccc(Sc3ccccc3)cc2[nH]1 [FENBENDAZOLE]
- ABSOLUTE BASOPHIL (72 h, time 3 day): 0 CELLS/uL
- ABSOLUTE EOSINOPHIL (72 h, time 3 day): 0 CELLS/uL
- ABSOLUTE LYMPHOCYTE (72 h, time 3 day): 13096 CELLS/uL
- ABSOLUTE MONOCYTE (72 h, time 3 day): 168.67 CELLS/uL
- ABSOLUTE SEGMENTED NEUTROPHIL (72 h, time 3 day): 1268.67 CELLS/uL
- BASOPHIL (72 h, time 3 day): 0%
- EOSINOPHIL (72 h, time 3 day): 0%
- ERYTHROCYTE COUNT (72 h, time 3 day): 5.64 x10E6/uL
- HEMATOCRIT (72 h, time 3 day): 35.13%
- HEMOGLOBIN (72 h, time 3 day): 13.37 G/DL
- LEUKOCYTE COUNT (72 h, time 3 day): 14.53 x10E3/uL
- LYMPHOCYTE (72 h, time 3 day): 90.33%
- MEAN CORPUSCULAR HEMOGLOBIN (72 h, time 3 day): 23.7 pg
- MEAN CORPUSCULAR HEMOGLOBIN CONCENTRATION (72 h, time 3 day): 38.07 G/DL
- MEAN CORPUSCULAR VOLUME (72 h, time 3 day): 62.37 fL
- MONOCYTE (72 h, time 3 day): 1%
- NEUTROPHIL (72 h, time 3 day): 8.67%
- NUCLEATED RED BLOOD CELLS (72 h, time 3 day): 0 /100WBC
- PLATELET COUNT (72 h, time 3 day): 1087 x10E3/uL
- ALANINE AMINOTRANSFERASE (72 h, time 3 day): 79 u/L
- ALBUMIN (72 h, time 3 day): 4.07 G/DL
- ALKALINE PHOSPHATASE (72 h, time 3 day): 536.67 u/L
- ASPARTATE AMINOTRANSFERASE (72 h, time 3 day): 137.67 u/L
- BLOOD UREA NITROGEN (72 h, time 3 day): 15 mg/dL
- CARBON DIOXIDE (72 h, time 3 day): 27.33 mmol/L
- CHLORIDE (72 h, time 3 day): 99.33 MEQ/L
- CHOLESTEROL (72 h, time 3 day): 87.33 mg/dL
- CREATINE PHOSPHOKINASE (72 h, time 3 day): 508.67 u/L
- CREATININE (72 h, time 3 day): 0.16 mg/dL
- GLUCOSE (72 h, time 3 day): 146.33 mg/dL
- LACTATE DEHYDROGENASE (72 h, time 3 day): 359 u/L
- LIPASE (72 h, time 3 day): 10.67 u/L
- PHOSPHORUS (72 h, time 3 day): 13.07 mg/dL
- POTASSIUM (72 h, time 3 day): 6.5 MEQ/L
- SODIUM (72 h, time 3 day): 143.5 MEQ/L
- TOTAL BILIRUBIN (72 h, time 3 day): 0.3 mg/dL
- TOTAL PROTEIN (72 h, time 3 day): 5.6 G/DL
- URIC ACID (72 h, time 3 day): 1.7 mg/dL
- ABSOLUTE BASOPHIL (120 h, time 5 day): 0 CELLS/uL
- ABSOLUTE EOSINOPHIL (120 h, time 5 day): 126 CELLS/uL
- ABSOLUTE LYMPHOCYTE (120 h, time 5 day): 15732 CELLS/uL
- ABSOLUTE MONOCYTE (120 h, time 5 day): 245.33 CELLS/uL
- ABSOLUTE SEGMENTED NEUTROPHIL (120 h, time 5 day): 1830 CELLS/uL
- BASOPHIL (120 h, time 5 day): 0%
- EOSINOPHIL (120 h, time 5 day): 0.67%
- ERYTHROCYTE COUNT (120 h, time 5 day): 6.25 x10E6/uL
- HEMATOCRIT (120 h, time 5 day): 37.37%
- HEMOGLOBIN (120 h, time 5 day): 14.73 G/DL
- LEUKOCYTE COUNT (120 h, time 5 day): 17.93 x10E3/uL
- LYMPHOCYTE (120 h, time 5 day): 88%
- MEAN CORPUSCULAR HEMOGLOBIN (120 h, time 5 day): 23.57 pg
- MEAN CORPUSCULAR HEMOGLOBIN CONCENTRATION (120 h, time 5 day): 39.43 G/DL
- MEAN CORPUSCULAR VOLUME (120 h, time 5 day): 59.83 fL
- MONOCYTE (120 h, time 5 day): 1.33%
- NEUTROPHIL (120 h, time 5 day): 10%
- NUCLEATED RED BLOOD CELLS (120 h, time 5 day): 0 /100WBC
- PLATELET COUNT (120 h, time 5 day): 1051.67 x10E3/uL
- ALANINE AMINOTRANSFERASE (120 h, time 5 day): 164.33 u/L
- ALBUMIN (120 h, time 5 day): 4.1 G/DL
- ALKALINE PHOSPHATASE (120 h, time 5 day): 601.67 u/L
- ASPARTATE AMINOTRANSFERASE (120 h, time 5 day): 203.67 u/L
- BLOOD UREA NITROGEN (120 h, time 5 day): 13.67 mg/dL
- CARBON DIOXIDE (120 h, time 5 day): 26.33 mmol/L
- CHLORIDE (120 h, time 5 day): 99.33 MEQ/L
- CHOLESTEROL (120 h, time 5 day): 85.33 mg/dL
- CREATINE PHOSPHOKINASE (120 h, time 5 day): 602.33 u/L
- CREATININE (120 h, time 5 day): 0.19 mg/dL
- GLUCOSE (120 h, time 5 day): 143.67 mg/dL
- LACTATE DEHYDROGENASE (120 h, time 5 day): 615.33 u/L
- LIPASE (120 h, time 5 day): 11 u/L
- PHOSPHORUS (120 h, time 5 day): 11.27 mg/dL
- POTASSIUM (120 h, time 5 day): 6.24 MEQ/L
- SODIUM (120 h, time 5 day): 142.9 MEQ/L
- TOTAL BILIRUBIN (120 h, time 5 day): 0.27 mg/dL
- TOTAL PROTEIN (120 h, time 5 day): 5.6 G/DL
- URIC ACID (120 h, time 5 day): 2.17 mg/dL

Reference: ChEMBL document CHEMBL3885881, “DrugMatrix”
